Results from US9452185B2, “Mesenchymal stem cells and supports for tissue regeneration, repair and reconstruction” (THE TEXAS A&M UNIVERSITY SYSTEM, priority 2009, dated 2016).
“Also recorded” adds a separate entry of the source.

Legend:
Assay type in all cases: cell-based, human
hMSCs [1] = assay: Microarray of cultured hMSCs after 8 days in osteogenic media (in vitro); conditions: for transcript transducin-like enhancer of split-1 / transcripts Klf-6, caldesmon-1, gamma-aminobutyric acid B receptor-2, synaptotagmin like-2 / transcripts fibroblast growth factor-7, high mobility group AT-hook 2, Cdk5 and Abl enzyme substrate-1, amyloid beta precursor protein-binding family B2 / transcripts protocadherin-7, PR domain containing-1, gremlin-1, collectin subfamily member-12, stanniocalcin-2: 8 days, 200/800 nM BIO, 1.0/10 μM GW; for collagens and ECM proteins found in bone tissue (transcripts): vs vehicle control
Procedure: Array analysis. Transcriptome arrays were performed using Affimetrix apparatus and HG-U133 Plus 2.0 chips. Cytokine arrays on conditioned media were performed using a human cytokine array and analyzed using a digital imager. Effects of GSK3β and PPARγ inhibition on the transcriptome of hMSCs. […] After 8 days of culture, RNA microarrays were performed on the hMSCs.

osteoprotegerin (OPG) = assay: OPG secretion by ELISA; conditions: osteogenic medium lacking dex, 8 days
Procedure: (§1) ELISAs. ELISA for CXCL6, Dkk-1, GROa, GRO13, and OPG were carried out by using nonbiotinylated polyclonal capture antibodies and biotinylated detection antibodies that were commercially acquired on coated 96-well plates The biotinylated […] antibodies were detected by using horseradish peroxidase-conjugated streptavidin and TMB substrate. ELISA for IL-lb were performed by using commercially acquired kits. In order to characterize the influence of 7AIPM on osteogenic differentiation, hMSC's from two donors were cultured as described elsewhere herein with the addition of varying concentrations of the compound or vehicle to the media. Samples of the media were collected daily for analysis. These samples were analyzed for the presence of OPG and Dkk-1 using ELISA. Alkaline phosphatase activity of the monolayers and cell numbers were measured using a spectrophotometer.

β-catenin, GSK3β, PPARγ = assay: Intracellular distribution of β-catenin, GSK3β and PPARγ (immunoblot, fluorescence microscopy); conditions: for GSK3β in the cytoplasm / nuclear β-catenin: MSCs under osteogenic conditions
Procedure: Protein extraction, gel electrophoresis and western blotting. Nuclear extracts were performed by Triton extraction and differential centrifugation as previously described (Gregory et al., 2003, J Biol Chem 278:2806728078). Proteins were electrophoresed and blotted onto nitrocellulose using an electrophoresis system. Histochemistry and immunocytochemistry. For β-catenin localization studies, hMSCs were stained with a cy-3 conjugated anti-β-catenin antibody and nuclei were counterstained with pico-green dye. Specimens were processed as paraffin blocks and 8 longitudinal sections were prepared, deparaffinized and rehydrated, then stained with hematoxylin and eosin. For immunocytochemistry, sections were probed with an anti-human β-2-microglobulin antibody. An upright fluorescent microscope fitted with a high performance camera (and image analysis software was employed for imaging.

hMSCs [2] = assay: hMSC yield, cell cycle analysis and cleaved caspase-3 immunoblot; conditions: for hMSC yield: BIO at concentrations greater than 400 nM, GW at tested doses; for cleaved caspase-3 (Asp175) immunoblot: whole cell extracts of treated hMSCs
Procedure: Cell cycle. Profiles were generated by fluorescence activated cell sorting and analyzed with software. Protein extraction, gel electrophoresis and western blotting. Nuclear extracts were performed by Triton extraction and differential centrifugation as previously described (Gregory et al., 2003, J Biol Chem 278:2806728078). Proteins were electrophoresed and blotted onto nitrocellulose using an electrophoresis system.

hMSCs [3] = assay: Alkaline phosphatase (ALP) activity of hMSCs in osteogenic media
Procedure: For non-mineralizing osteogenic differentiation, hMSCs were plated in 12-well plates at 100 cells cm^−2. Upon reaching about 70% confluency, the media was changed to osteogenic base media (OBM) containing 50 μg mL^−1 ascorbic acid and 5 mM β-glycerol phosphate and either GW9662 or DMSO. Media was changed every 2 days for 8-10 days following measurement of ALP activity. For this purpose, the monolayer was washed with PBS and then with ALP reaction buffer (100 mM Tris-HCl, pH 9, containing 100 mM KCl and 1 mM MgCl2). One half mL of ALP buffer then 0.5 mL p-nitrophenol phosphate (PNPP) was rapidly added to the wells. ALP activity was measured as the rate of PNPP conversion to p-nitrophenolate by monitoring the absorbance at 405 nm every 30 seconds for 9 minutes using a plate reader. The rates were normalized against cell number and statistically analyzed using one-way analysis of variance (ANOVA) and Tukey post test for multiple comparisons or by Student's t-test, for single, unrelated comparisons.
Early osteogenic differentiation and alkaline phosphatase assays. MSCs were plated in 6-well plates at an initial plating density of 100 cells per cm^2 and cultured in standard complete media for 6 days until semi-confluence (approximately 5,000 cells per cm^2). Osteogenic base media consisting of complete media containing 5 mM β-GP and 50 μg mL^−1 ascorbate-2-phosphate and the appropriate inhibitor or vehicle was then used to induce early osteogenic differentiation. Assays were allowed to proceed for 8-10 days with changes of media every 2 days. ALP assays were performed as previously described (Gunn et al., 2006, Stem Cells 24:986-991).
In order to characterize the influence of 7AIPM on osteogenic differentiation, hMSC's from two donors were cultured as described elsewhere herein with the addition of varying concentrations of the compound or vehicle to the media. Samples of the media were collected daily for analysis. These samples were analyzed for the presence of OPG and Dkk-1 using ELISA. Alkaline phosphatase activity of the monolayers and cell numbers were measured using a spectrophotometer.

Dkk-1 = Dkk-1 secretion by ELISA; conditions: osteogenic medium lacking dex, 8 days
Procedure: as §1

hMSCs [4] = assay: Late stage osteogenesis, Alizarin Red S (ARS) staining; conditions: for dex-induced biomineralization with simultaneous treatment: 17 days with β-GP, ascorbate and dex; for dex-induced mineralization after pre-treatment: BIO 200 and 800 nM, GW 1.0 and 10.0 μM for 8 days, then 15 days with dex; for biomineralization in the absence of dex: extended incubation
Procedure: Late stage osteogenesis and ARS staining. Mature osteogenic assays were performed in 6 well format as previously described (Gregory et al., 2004, Anal Biochem 329:77-84).
Effect of GSK3β and PPARγ inhibition on late stage osteogenesis. […] Initially, experiments were conducted to examine whether pre-treatment of hMSCs with inhibitors BIO (200 and 800 nM) and GW (1.0 and 10.0 μM) in the presence of β-glycerophosphate (β-GP) and ascorbate for 8 days followed by 15 days in the same media supplemented with dex affected mineralization of the cultures. If BIO or GW function to accelerate the cells through the immature stages of osteogenesis and partially to maturity, hMSCs exposed to these conditions would be expected to respond more rapidly to the steroid-dependent mature osteoblast transition. After differentiation, calcium content was visualized by Alizarin Red S (ARS) staining and the dye was extracted and quantified. At the doses tested, and in a dose-dependent manner, BIO and GW enhanced dex-induced differentiation into biomineralizing osteoblasts (FIG. 21).
The next experiments were performed to examine whether withdrawal of the Wnt stimulus caused by BIO and GW was necessary for the hMSCs to progress to a dex-dependent biomineralizing phenotype. Human MSCs were pre-cultured with BIO and GW in the presence of f3-GP, ascorbate and dex for 17 days. […] Clotted human plasma is a biocompatible and osteoinductive vector for administration of hMSCs

[5] = osteogenic media without dexamethasone, 8 days
[6] = osteogenic medium lacking dex, 8 days

| transcripts Klf-6, caldesmon-1, gamma-aminobutyric acid B receptor-2, synaptotagmin like-2 (hMSCs [1]) | transcripts fibroblast growth factor-7, high mobility group AT-hook 2, Cdk5 and Abl enzyme substrate-1, amyloid beta precursor protein-binding family B2 (hMSCs [1]) | hMSC yield (hMSCs [2]) | cleaved caspase-3 (Asp175) immunoblot (hMSCs [2]) | ALP activity (hMSCs [3]; [5]) | SMILES | transcript transducin-like enhancer of split-1 (hMSCs [1]) | transcripts protocadherin-7, PR domain containing-1, gremlin-1, collectin subfamily member-12, stanniocalcin-2 (hMSCs [1]) | collagens and ECM proteins found in bone tissue (transcripts) (hMSCs [1]) | nuclear levels of PPARγ (β-catenin, GSK3β, PPARγ) | GSK3β in the cytoplasm (β-catenin, GSK3β, PPARγ) | nuclear β-catenin (β-catenin, GSK3β, PPARγ) | dose at which ALP activity dropped back to control levels (hMSCs [3]; [6]) | Dkk-1 secretion (Dkk-1) | dex-induced biomineralization with simultaneous treatment (hMSCs [4]) | dex-induced mineralization after pre-treatment (hMSCs [4]) | biomineralization in the absence of dex (hMSCs [4]) | further results |
| --- | --- | --- | --- | --- | --- | --- | --- | --- | --- | --- | --- | --- | --- | --- | --- | --- | --- |
| significantly up-regulated | significantly up-regulated | without reduction in cellular yield | no evidence of caspase 3 processing | induced | O=C(Nc1ccccc1)c1cc([N+](=O)[O-])ccc1Cl [GW9662, 2-chloro-5-nitro-N-phenyl-benzamide] | down-regulated | no change | up-regulated | reduced | depletion | increased levels | > 1.0 µM | reduced | enhanced dex-induced biomineralization | enhanced | did not induce biomineralization | inflammatory mediator genes (IL1, IL8, CXCL chemokines) (hMSCs [1]; vs control): profoundly down-regulated; dose of maximal stimulation of OPG secretion (osteoprotegerin (OPG)): 0.5 µM; ALP activity (hMSCs [3]; hMSCs in osteogenic media with GW9662 vs DMSO): dose-dependent increase; also recorded: substantially upregulated; also recorded: substantially up-regulated; also recorded: increased |
| significantly up-regulated | no change | substantial reduction | no evidence of caspase 3 processing | induced | O=C1Nc2cc(Br)ccc2/C1=C1/Nc2ccccc2/C1=N\O [BIO, bromo-indirubin-3′-mono-oxime] | down-regulated | significantly up-regulated | up-regulated | reduced | depletion | increased levels | exceeding 400 nM | reduced | enhanced dex-induced biomineralization | enhanced | did not induce biomineralization | secretion of OPG (osteoprotegerin (OPG)): rose in a dose dependent manner; cell cycle effect (hMSCs [2]; 800 nM BIO, 8 days): inhibit mitosis; dose of maximal effect on ALP activity (hMSCs [3]; [6]): 100 to 200 nM |
